In the supplement of paper PMC10307832:

Legend:
Assay in all cases: relative viability (nuclei count vs DMSO), 5 days (fraction); higher = more cells survive
Daporinad + OSI-027 = compound: O=C(/C=C/c1cccnc1)NCCCCC1CCN(C(=O)c2ccccc2)CC1 [Daporinad] + COc1cccc2cc(-c3nc([C@H]4CC[C@H](C(=O)O)CC4)n4ncnc(N)c34)[nH]c12 [OSI-027] (partner 0.5 µM)
How it was run: (§1)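 Cells from lung cancer lines were seeded into 1536-well plates and, one day later, dosed by pin tool. Treatments were either a single drug or a fixed dose of an anchor drug with five library-drug doses (not always all listed) in √10 steps. After 5 days, nuclei were stained in a one-step fixation (final 0.05% Triton X-100, 1% formaldehyde, 1 ug/ml Hoechst) and counted on 4× images, and relative viability is the treated-to-vehicle nuclei ratio, as the median of duplicate plates.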

R406 + OSI-027 = compound: COc1cc(Nc2ncc(F)c(Nc3ccc4c(n3)NC(=O)C(C)(C)O4)n2)cc(OC)c1OC [R406] + COc1cccc2cc(-c3nc([C@H]4CC[C@H](C(=O)O)CC4)n4ncnc(N)c34)[nH]c12 [OSI-027] (partner 0.5 µM)
How it was run: as §1

R406 + Decitabine = compound: COc1cc(Nc2ncc(F)c(Nc3ccc4c(n3)NC(=O)C(C)(C)O4)n2)cc(OC)c1OC [R406] + Nc1ncn([C@H]2C[C@H](O)[C@@H](CO)O2)c(=O)n1 [Decitabine] (partner 2 µM)
How it was run: as §1

R406 + Crizotinib = compound: COc1cc(Nc2ncc(F)c(Nc3ccc4c(n3)NC(=O)C(C)(C)O4)n2)cc(OC)c1OC [R406] + C[C@@H](Oc1cc(-c2cnn(C3CCNCC3)c2)cnc1N)c1c(Cl)ccc(F)c1Cl [Crizotinib] (partner 1 µM)
How it was run: as §1

Row | Cell Line | relative viability (Daporinad + OSI-027; first compound 0.0005 µM) | relative viability (Daporinad + OSI-027; first compound 0.001581 µM) | relative viability (Daporinad + OSI-027; first compound 0.005 µM) | relative viability (Daporinad + OSI-027; first compound 0.01581 µM) | relative viability (R406 + OSI-027; first compound 0.08 µM) | relative viability (R406 + OSI-027; first compound 0.253 µM) | relative viability (R406 + OSI-027; first compound 0.8 µM) | relative viability (R406 + OSI-027; first compound 2.53 µM) | relative viability (R406 + OSI-027; first compound 8 µM) | relative viability (R406 + Decitabine; first compound 0.08 µM) | relative viability (R406 + Decitabine; first compound 0.253 µM) | relative viability (R406 + Decitabine; first compound 0.8 µM) | relative viability (R406 + Decitabine; first compound 2.53 µM) | relative viability (R406 + Decitabine; first compound 8 µM) | relative viability (R406 + Crizotinib; first compound 0.08 µM) | relative viability (R406 + Crizotinib; first compound 0.253 µM) | relative viability (R406 + Crizotinib; first compound 0.8 µM) | relative viability (R406 + Crizotinib; first compound 2.53 µM) | relative viability (R406 + Crizotinib; first compound 8 µM)
1 | NCI-H2009 | 0.599 | 0.739 | 0.614 | 0.381 | 0.602 | 0.729 | 0.747 | 0.301 | 0.149 | 0.371 | 0.42 | 0.383 | 0.353 | 0.294 | 1.07 | 1.02 | 1.13 | 0.815 | 0.301
2 | LOU-NH91 | 0.732 | 0.779 | 0.772 | 0.83 | 0.728 | 0.714 | 0.651 | 0.448 | 0.429 | 0.797 | 0.792 | 0.779 | 0.644 | 0.558 | 0.745 | 0.728 | 0.756 | 0.504 | 0.57
3 | NCI-H2405 | 0.698 | 0.645 | 0.724 | 0.626 | 0.658 | 0.686 | 0.608 | 0.556 | 0.283 | 0.703 | 0.814 | 0.756 | 0.615 | 0.369 | 0.769 | 0.989 | 0.861 | 0.78 | 0.638
4 | LCLC-97TM1 | 0.523 | 0.633 | 0.656 | 0.517 | 0.461 | 0.586 | 0.618 | 0.221 | 0.215 | 0.259 | 0.27 | 0.247 | 0.19 | 0.274 | 0.418 | 0.443 | 0.38 | 0.29 | 0.244
5 | NCI-H647 | 0.583 | 0.598 | 0.647 | 0.735 | 0.657 | 0.504 | 0.878 | 0.298 | 0.15 | 0.39 | 0.462 | 0.406 | 0.486 | 0.207 | 0.987 | 1.35 | 1.26 | 0.573 | 0.0968
6 | NCI-H838 | 0.415 | 0.465 | 0.475 | 0.555 | 0.407 | 0.472 | 0.368 | 0.326 | 0.167 | 0.496 | 0.528 | 0.485 | 0.363 | 0.214 | 0.806 | 0.945 | 0.949 | 0.612 | 0.516
7 | H3255 | 0.476 | 0.596 | 0.587 | 0.633 | 0.569 | – | 0.651 | 0.426 | 0.406 | 0.656 | 0.589 | 0.714 | 0.571 | 0.458 | 0.82 | 1.13 | 0.873 | 0.761 | 0.77
8 | NCI-H2170 | 0.66 | 0.734 | 0.793 | 0.699 | 0.734 | 0.654 | 0.688 | 0.415 | 0.648 | 0.437 | 0.448 | 0.487 | 0.41 | 0.505 | 1.16 | 1.25 | 1.15 | 0.815 | 0.495
9 | NCI-H1437 | 0.851 | 0.885 | 0.885 | 0.882 | 0.91 | 0.86 | 1.11 | 0.835 | 0.593 | 0.552 | 0.623 | 0.567 | 0.665 | 0.472 | 0.944 | 1.13 | 0.971 | 0.864 | 0.716
10 | NCI-H358 | 0.664 | 0.794 | 0.886 | 0.77 | 0.752 | 0.678 | 0.893 | 0.208 | 0.118 | 0.224 | 0.211 | 0.222 | 0.119 | 0.125 | 0.639 | 0.587 | 0.498 | 0.434 | 0.221
11 | LU99A | 0.33 | 0.282 | 0.358 | 0.305 | 0.322 | 0.283 | 0.308 | 0.253 | 0.276 | 0.972 | 0.87 | 0.888 | 0.61 | 0.591 | 0.474 | 0.553 | 0.607 | – | 0.218
12 | SK-MES-1 | 0.532 | 0.608 | 0.734 | 0.601 | 0.588 | 0.649 | 0.714 | 0.341 | 0.13 | 0.351 | 0.384 | 0.455 | 0.229 | 0.181 | 0.992 | 1.04 | 0.959 | 0.73 | 0.43
13 | HCC-827 | 0.78 | 0.865 | 0.881 | 0.74 | 0.771 | 0.778 | 0.826 | 0.611 | 0.507 | 0.323 | 0.412 | 0.401 | 0.219 | 0.268 | 0.975 | 0.952 | 0.899 | 0.841 | 0.409
14 | LK-2 | 0.225 | 0.241 | 0.18 | 0.192 | 0.218 | 0.215 | 0.186 | 0.149 | 0.146 | 0.227 | 0.469 | 0.379 | 0.23 | 0.21 | 0.275 | 0.224 | 0.178 | 0.255 | 0.259
15 | HCC-366 | 0.961 | 0.907 | 1.22 | 1.03 | 0.938 | 1.02 | 1.04 | 0.0426 | 0.117 | 0.317 | 0.372 | 0.36 | 0.344 | 0.112 | 0.581 | 0.794 | 0.81 | – | 0.294
